Legend:
field poppy = experiment: Test D preemergence; assay type: in vivo, Papaver rhoeas; details: Papaver rhoeas, pre-emergence
Procedure, shortened: (§1)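 Values are 0–100 visual control ratings (0 none, 100 complete) given 7–21 days after application. Soil for preemergence was silt loam; postemergence plants stood 2–18 cm tall.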

pigweed [1] = experiment: Test D preemergence; assay type: in vivo, Amaranthus retroflexus; details: Amaranthus retroflexus, pre-emergence
Procedure, shortened: as §1

speedwell = experiment: Test D preemergence; assay type: in vivo, Veronica persica; details: Veronica persica, pre-emergence
Procedure, shortened: as §1

wild oat = experiment: Test D preemergence; assay type: in vivo, Avena fatua; details: Avena fatua, pre-emergence
Procedure, shortened: as §1

chickweed = experiment: Test D postemergence; assay type: in vivo, Stellaria media; details: Stellaria media, post-emergence
Procedure, shortened: as §1

Italian ryegrass [2] = experiment: Test D postemergence; assay type: in vivo, Lolium multiflorum; details: Lolium multiflorum, post-emergence
Procedure, shortened: as §1

lambsquarters = experiment: Test D postemergence; assay type: in vivo, Chenopodium album; details: Chenopodium album, post-emergence
Procedure, shortened: as §1

pigweed [3] = experiment: Test D postemergence; assay type: in vivo, Amaranthus retroflexus; details: Amaranthus retroflexus, post-emergence
Procedure, shortened: as §1

spring barley = experiment: Test D postemergence; assay type: in vivo, Hordeum vulgare; details: Hordeum vulgare, post-emergence, Postemergence, scale 0 to 100 (0 no effect, 100 complete control), read-out: Plant response rating, Barley, Spring
Procedure, shortened: as §1

winter barley = experiment: Test D postemergence; assay type: in vivo, Hordeum vulgare; details: Hordeum vulgare, post-emergence, Postemergence, scale 0 to 100 (0 no effect, 100 complete control), read-out: Plant response rating, Barley, Winter
Procedure, shortened: as §1

wild buckwheat = experiment: Test D postemergence; assay type: in vivo, Polygonum convolvulus; details: Fallopia convolvulus, post-emergence, Postemergence, scale 0 to 100 (0 no effect, 100 complete control), read-out: Plant response rating, Buckwheat, Wild
Procedure, shortened: as §1

nutsedge, purple = experiment: Test F preemergence; assay type: in vivo, Cyperus rotundus; details: 21 days, scale 0 to 100
Source text: (§2) Seeds of plant species selected from bermudagrass (Cynodon dactylon), surinam grass (Brachiaria decumbens), large (Lg) crabgrass (Digitaria sanguinalis), crabgrass, naked (naked crabgrass, Digitaria nuda), foxtail, green (green foxtail, Setaria viridis), johnsongrass (Sorghum halepense), kochia (Kochia scoparia), morningglory (pitted morningglory, Ipomoea lacunosa), nutsedge, purple (purple nutsedge, Cyperus rotundus), ragweed (common ragweed, Ambrosia elatior), mustard, black (black mustard, Brassica nigra), guineagrass (Panicum maximum), dallisgrass (Paspalum dilatatum), barnyardgrass (Echinochloa crus-galli), sandbur (southern sandbur, Cenchrus echinatus), sowthistle (common sowthistle, Sonchus oleraceous), Italian ryegrass (Lolium multiflorum), signalgrass (broadleaf signalgrass, Brachiaria platyphylla), dayflower (Virginia (VA) dayflower, Commelina virginica), bluegrass (annual bluegrass, Poa annua), quackgrass (Elytrigia repens), mallow (common mallow, Malva sylvestris), buckwheat, wild (wild buckwheat, Polygonum convolvulus), leafy spurge (Euphorbia esula), chickweed (common chickweed, Stellaria media), wild poinsettia (Euphorbia heterophylla), and pigweed (Amaranthus retroflexus) were planted into a blend of loam soil and sand and treated preemergence with test chemicals formulated in a non-phytotoxic solvent mixture which included a surfactant.
(§3) Treated plants and controls were maintained in a greenhouse for 21 days, after which time all species were compared to controls and visually evaluated. Plant response ratings, summarized in Table F, are based on a scale of 0 to 100 where 0 is no effect and 100 is complete control. A dash (-) response means no test result.

barnyardgrass = experiment: Test F preemergence; assay type: in vivo, Echinochloa crus-galli; details: 21 days, scale 0 to 100
Source text: as §2, §3

Italian ryegrass [4] = experiment: Test F preemergence; assay type: in vivo, Lolium multiflorum; details: 21 days, scale 0 to 100
Procedure, shortened: (§4)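 Seeds are planted in a blend of loam and sand. Chemicals in a surfactant-containing non-phytotoxic solvent are applied before emergence. After 21 days under greenhouse conditions, plants are compared with controls and scored visually, 0–100.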

wild poinsettia = experiment: Test F preemergence; assay type: in vivo, Euphorbia heterophylla; details: 21 days, scale 0 to 100
Procedure, shortened: as §4

Compound: N#Cc1cccc(Oc2ncc(Cl)cn2)c1-n1cc(OCC(F)(F)F)cn1 [Compound 274, 3-[(5-chloro-2-pyrimidinyl)oxy]-2-[4-(2,2,2-trifluoroethoxy)-1H-pyrazol-1-yl]benzonitrile]
- pest or weed control at 16 g/ha (field poppy; 16 g ai/ha, scale 0 (no effect) to 100 (complete control), read-out: Plant response rating, Field Poppy): 75%
- pest or weed control at 31 g/ha (field poppy; 31 g ai/ha, scale 0-100, read-out: Plant response rating, Field Poppy): 100%
- pest or weed control at 62 g/ha (field poppy; 62 g ai/ha, scale 0-100, read-out: Plant response rating, Field Poppy): 100%
- pest or weed control at 125 g/ha (field poppy; 125 g ai/ha, scale 0-100, read-out: Plant response rating, Field Poppy): 100%
- pest or weed control at 16 g/ha (pigweed [1]; 16 g ai/ha, scale 0 (no effect) to 100 (complete control), read-out: Plant response rating, Pigweed): 70%
- pest or weed control at 31 g/ha (pigweed [1]; 31 g ai/ha, scale 0 (no effect) to 100 (complete control), read-out: Plant response rating, Pigweed): 100%
- pest or weed control at 125 g/ha (pigweed [1]; 125 g ai/ha, scale 0-100, read-out: Plant response rating, Pigweed): 100%
- pest or weed control at 16 g/ha (speedwell; 16 g ai/ha, scale 0 (no effect) to 100 (complete control), read-out: Plant response rating, Speedwell): 100%
- pest or weed control at 31 g/ha (speedwell; 31 g ai/ha, scale 0 (no effect) to 100 (complete control), read-out: Plant response rating, Speedwell): 100%
- pest or weed control at 125 g/ha (speedwell; 125 g ai/ha, scale 0-100, read-out: Plant response rating, Speedwell): 100%
- pest or weed control at 16 g/ha (wild oat; 16 g ai/ha, scale 0 (no effect) to 100 (complete control), read-out: Plant response rating, Oat, Wild): 0%
- pest or weed control at 31 g/ha (wild oat; 31 g ai/ha, scale 0-100, read-out: Plant response rating, Oat, Wild): 0%
- pest or weed control at 62 g/ha (wild oat; 62 g ai/ha, scale 0-100, read-out: Plant response rating, Oat, Wild): 15%
- pest or weed control at 125 g/ha (wild oat; 125 g ai/ha, scale 0-100, read-out: Plant response rating, Oat, Wild): 25%
- pest or weed control at 16 g/ha (chickweed; 16 g ai/ha, scale 0-100, read-out: Plant response rating, Chickweed): 65%
- pest or weed control at 31 g/ha (chickweed; 31 g ai/ha, scale 0 to 100 (0 no effect, 100 complete control), read-out: Plant response rating, Chickweed): 65%
- pest or weed control at 62 g/ha (chickweed; 62 g ai/ha, scale 0 to 100 (0 no effect, 100 complete control), read-out: Plant response rating, Chickweed): 70%
- pest or weed control at 125 g/ha (chickweed; 125 g ai/ha, scale 0 to 100 (0 no effect, 100 complete control), read-out: Plant response rating, Chickweed): 80%
- pest or weed control at 16 g/ha (Italian ryegrass [2]; 16 g ai/ha, scale 0-100, read-out: Plant response rating, Ryegrass, Italian): 15%
- pest or weed control at 31 g/ha (Italian ryegrass [2]; 31 g ai/ha, scale 0 to 100 (0 no effect, 100 complete control), read-out: Plant response rating, Ryegrass, Italian): 25%
- pest or weed control at 62 g/ha (Italian ryegrass [2]; 62 g ai/ha, scale 0 to 100 (0 no effect, 100 complete control), read-out: Plant response rating, Ryegrass, Italian): 35%
- pest or weed control at 125 g/ha (Italian ryegrass [2]; 125 g ai/ha, scale 0 to 100 (0 no effect, 100 complete control), read-out: Plant response rating, Ryegrass, Italian): 35%
- pest or weed control at 16 g/ha (lambsquarters; 16 g ai/ha, scale 0-100, read-out: Plant response rating, Lambsquarters): 75%
- pest or weed control at 31 g/ha (lambsquarters; 31 g ai/ha, scale 0 to 100 (0 no effect, 100 complete control), read-out: Plant response rating, Lambsquarters): 80%
- pest or weed control at 62 g/ha (lambsquarters; 62 g ai/ha, scale 0 to 100 (0 no effect, 100 complete control), read-out: Plant response rating, Lambsquarters): 95%
- pest or weed control at 125 g/ha (lambsquarters; 125 g ai/ha, scale 0 to 100 (0 no effect, 100 complete control), read-out: Plant response rating, Lambsquarters): 95%
- pest or weed control at 16 g/ha (pigweed [3]; 16 g ai/ha, scale 0-100, read-out: Plant response rating, Pigweed): 75%
- pest or weed control at 31 g/ha (pigweed [3]; 31 g ai/ha, scale 0 to 100 (0 no effect, 100 complete control), read-out: Plant response rating, Pigweed): 95%
- pest or weed control at 62 g/ha (pigweed [3]; 62 g ai/ha, scale 0 to 100 (0 no effect, 100 complete control), read-out: Plant response rating, Pigweed): 95%
- pest or weed control at 125 g/ha (pigweed [3]; 125 g ai/ha, scale 0 to 100 (0 no effect, 100 complete control), read-out: Plant response rating, Pigweed): 95%
- plant injury at 16 g/ha (spring barley; 16 g ai/ha): 20%
- plant injury at 31 g/ha (spring barley; 31 g ai/ha): 25%
- plant injury at 62 g/ha (spring barley; 62 g ai/ha): 30%
- plant injury at 125 g/ha (spring barley; 125 g ai/ha): 35%
- plant injury at 16 g/ha (winter barley; 16 g ai/ha): 10%
- plant injury at 31 g/ha (winter barley; 31 g ai/ha): 20%
- plant injury at 62 g/ha (winter barley; 62 g ai/ha): 25%
- plant injury at 125 g/ha (winter barley; 125 g ai/ha): 30%
- pest or weed control at 16 g/ha (wild buckwheat; 16 g ai/ha): 65%
- pest or weed control at 31 g/ha (wild buckwheat; 31 g ai/ha): 85%
- pest or weed control at 62 g/ha (wild buckwheat; 62 g ai/ha): 100%
- pest or weed control at 125 g/ha (wild buckwheat; 125 g ai/ha): 100%
- Plant response rating, Nutsedge, Purple (nutsedge, purple; 16 g ai/ha): 35
- Plant response rating, Nutsedge, Purple (nutsedge, purple; 31 g ai/ha): 50
- Plant response rating, Nutsedge, Purple (nutsedge, purple; 62 g ai/ha): 65
- Plant response rating, Nutsedge, Purple (nutsedge, purple; 125 g ai/ha): 85
- Plant response rating, Nutsedge, Purple (nutsedge, purple; 250 g ai/ha): 98
- Plant response rating, Barnyardgrass (barnyardgrass; 16 g ai/ha): 75
- Plant response rating, Barnyardgrass (barnyardgrass; 31 g ai/ha): 100
- Plant response rating, Barnyardgrass (barnyardgrass; 62 g ai/ha): 100
- Plant response rating, Barnyardgrass (barnyardgrass; 125 g ai/ha): 100
- Plant response rating, Barnyardgrass (barnyardgrass; 250 g ai/ha): 100
- Plant response rating, Ryegrass, Italian (Italian ryegrass [4]; 16 g ai/ha): 35
- Plant response rating, Ryegrass, Italian (Italian ryegrass [4]; 31 g ai/ha): 40
- Plant response rating, Ryegrass, Italian (Italian ryegrass [4]; 62 g ai/ha): 70
- Plant response rating, Ryegrass, Italian (Italian ryegrass [4]; 125 g ai/ha): 75
- Plant response rating, Ryegrass, Italian (Italian ryegrass [4]; 250 g ai/ha): 100
- Plant response rating, Poinsettia, Wild (wild poinsettia; 16 g ai/ha): 5
- Plant response rating, Poinsettia, Wild (wild poinsettia; 31 g ai/ha): 10
- Plant response rating, Poinsettia, Wild (wild poinsettia; 62 g ai/ha): 70
- Plant response rating, Poinsettia, Wild (wild poinsettia; 125 g ai/ha): 95
- Plant response rating, Poinsettia, Wild (wild poinsettia; 250 g ai/ha): 100

Source: patent publication US9695155B2, “Herbicidal substituted pyrimidinyloxy benzene compounds” (E. I. DU PONT DE NEMOURS AND COMPANY, priority 2013, dated 2017)
